Tested on: HCT 116 cell line
Experiment: Cell inhibition assay (WST-1 proliferation), HCT-116
Assay type: cell-based
Conditions: Homo sapiens, 72 hrs incubation, read-out: Inhibitor Activity vs HCT 116 cell line
Procedure: Cells were seeded in 96W tissue culture plates (1 well=30 mm^2) in 50 μl of the appropriate culture medium (see below). Seeding densities were cell-line dependent: HCT-116=1000 cells per well, Hut-78=2250 cells per well, U937 cells=2000 cells per well. 24 hrs later 50 μL of the compound prepared in the same medium was added as 4 fold dilutions to give final concentrations in the range 0.15 nM-2500 nM (n=6 for each concentration). The plates were then incubated at 37° C., 5% CO2 for 72 hrs. Cell proliferation was assessed using WST-1 (a metabolic indicator dye, Roche Cat no. 1 644 807) according to the manufacturers instructions. The results were calculated as percentage of vehicle response and IC50 values represent the concentration of compound that inhibited the vehicle response by 50%.
HCT-116 Culture Medium—Dulbeccos MEM (Sigma D6546) plus 10% heat inactivated fetal calf serum (Hyclone SH30071 Thermo Fischer Scientific) containing 2 mM Glutamine (Sigma cat no G-7513) and 50 U/mL Penicillin and Streptomycin Sulphate (Sigma Cat no P-0781).

## CC[C@@H]1C(=O)N(C)c2cnc(Nc3ccc(C(=O)NC4CCN(CC[C@](C)(N)C(=O)OC)CC4)cc3OC)nc2N1C1CCCC1 [Example 1, Methyl 4-{4-[(4-{[(7R)-8-cyclopentyl-7-ethyl-5-methyl-6-oxo-5,6,7,8-tetrahydropteridin-2-yl]amino}-3-methoxybenzoyl)amino]piperidin-1-yl}isovalinate]
  IC50: 100 to 500 nM
